# Data: patent US10787651B2, “Bradyrhizobium monooxygenase and use thereof for preparation of chiral sulfoxide” (JIANGSU AOSAIKANG PHARMACEUTICAL CO., LTD., priority 2018, dated 2020)
# Changes are numbered by the printed parent chain.
# B1: BoTEMO: Bradyrhizobium oligotrophicum ECU1212 Thioether Monooxygenase, amino acid sequence SEQ ID No. 2 (protein)
# chain: MSTEHVDVLIVGAGLSGIAAAYHLQHKCPGKRFALLEGRGALGGTWDLFRYPGIRSDSDMYTLGYSFKPWTDPKAIADGPQILKYVQDTATENGIDRHIRFNHRVRRASWSSADARWTVEAERQTAQGTTETVSMTCGFLFMCSGYYRYEKGYLPDFKGMADFKGRIVHPQAWPADLDYAGKRVVVIGSGATAVTLVPAMAKTAAHVTMLQRSPTYVVSRPAQDALANKLREHLPAGLAYHLIRWRNVLFGMYFFQLSRRKPQRVKQLILGGVRAALGPDYDVATHFTPRYNPWDQRLCLVPDGDLFRTIREQRASVVTAGIDTFTERGLRLSDGRELEAEIVVTATGLVLQVLGGSEVVVDGRTVDFAKTLNYKGMMYSDVPNMAATLGYTNFSWTLKCDLTCEYVCRLLNYMDRHGYRQCVPHNDDTTVTPLPSLSFSSGYVQRSIADLPKQGSKRPWRLYQNYALDIVSLRFGKVDDGVMRYS
# modifications: Bradyrhizobium oligotrophicum ECU1212
# B2: BoTEMO-M2: BoTEMO mutant, Ser357Ile, Phe394Ala, SEQ ID No. 6 (protein)
# chain: B1 chain with S357I, F394A
# modifications: VARIANT
# B3: BoTEMO-M1: BoTEMO mutant, Asp295Cys, Ser395Leu, Trp396Ala, SEQ ID No. 4 (protein)
# chain: B1 chain with D295C, S395L, W396A
# modifications: VARIANT
# Tests used:
# purified BoTEMO enzyme = experiment: Specific activity and ee of purified BoTEMO enzyme against a series of thioethers; assay type: biochemical, Bradyrhizobium oligotrophicum ECU1212; settings: pH 9.0, 25° C.
# Protocol: To 0.5 ml of potassium phosphate buffer (100 mmol/L, pH 9.0) was added purified BoTEMO enzyme (purified BoTEMO enzyme prepared in accordance with the method of Example 5). A thioether substrate dissolved in DMSO was added so that the final concentration of the thioether was 0.2-2 mmol/L and the final concentration of DMSO was 2% (v/v), and NADPH was added to a final concentration 0.2-2 mmol/L. At 25° C., the reaction was stirred at 1000 rpm under shaking. After completion of reaction, 0.6 ml of ethyl acetate was added for extraction. The extract was dried over anhydrous sodium sulfate. The organic clear liquid was taken up, and evaporated overnight to remove the solvent. Then, the residue was dissolved with 0.5 ml of isopropanol and analyzed for measuring the ee value of product.
# The particular analysis conditions of conversion rate and ee value of product are as follows:
# (§1) The analysis is carried out with a high performance liquid chromatograph (HPLC) under the conditions of: a chiral OD-H column ([…], 5 μm particle size, Daicel), a mobile phase of n-hexane:isopropanol=93:7, a flow rate of 1 ml/min, and UV detection at 254 nm; or an AS-H column (250 mm×4.6 mm, 5 μm particle size, Daicel), a mobile phase of n-hexane:isopropanol=55:45, a flow rate of 0.5 mL/min, and UV detection at 254 nm.
# The activity of BoTEMO for catalyzing the asymmetrical oxidation of a series of thioether substrates to produce optically active sulfoxides was further determined by the method in accordance with Example.
# Recombinant BoTEMO = experiment: Asymmetric oxidation of thioethers by recombinant BoTEMO crude enzyme with glucose dehydrogenase recycling; assay type: biochemical, Bradyrhizobium oligotrophicum ECU1212; settings: 25° C.
# Protocol: as §1
# To 0.5 ml potassium phosphate buffer (100 mmol/L, pH 9.0) was added 100 μL of crude enzyme solution of BoTEMO (the crude enzyme solution in accordance with the method of Example 5) and a crude enzyme solution of glucose dehydrogenase, and thioanisole, methanol, NADP^+ and glucose were added to the final concentration of 2 mmol/L, 10% (v/v), 0.2 mmol/L and 3.6 g/L, respectively. At 25° C. and 1000 rpm, the mixture was shaken for 1 h. After completion of reaction, 0.6 ml of ethyl acetate was added for extraction. The extract was dried over anhydrous sodium sulfate, and evaporated to remove the solvent. Then, the residue was dissolved in 0.5 ml of isopropanol. The mixture was analyzed in accordance with the method of Example 7 for measure the conversion of reaction and the ee value of product. The conversion of reaction was above 99%, and the ee value of product was above 99% (S).
# To 0.5 ml of potassium phosphate buffer (100 mmol/L, pH 9.0) was added 100 μL crude enzyme solution of BoTEMO (the crude enzyme solution prepared in accordance with the method of Example 5) and a crude enzyme solution of glucose dehydrogenase, and omeprazole thioether, methanol, NADP^+ and glucose were added to the final concentrations of 0.2 mmol/L, 10% (v/v), 0.2 mmol/L and 3.6 g/L, respectively. At 25° C. and 1000 rpm, the mixture was shaken for 1 h. After completion of reaction, 0.6 ml of ethyl acetate was added for extraction. […] Then, the residue was dissolved in 0.5 ml isopropanol, and the solution was analyzed in accordance with the method of Example 7 for measuring the conversion of reaction and the ee value of product. […]
# To 10 ml of potassium phosphate buffer (100 mmol/L, pH 9.0) was added 0.1 g of lyophilized crude enzyme powders of BoTEMO (crude enzyme powders prepared in accordance with the method of Example 5) and 0.02 g of lyophilized crude enzyme powder of glucose dehydrogenase (15 U/mg), and 1-3 g/L of omeprazole thioether/lansoprazole thioether/pantoprazole thioether/rabeprazle thioether/ilaprazole thioether, 10% (v/v) of methanol, 0.2 mmol/L of NADP^+ and 10 g/L of glucose were added. […] Then, the residue was dissolved in 0.5 ml of isopropanol, and the solution was analyzed in accordance with the method of Example 7 for measuring the conversion of reaction and the ee value of product. […]
# Lysinibacillus = settings: substrate loading 0.1 g/L, after 48 fermentation cultivation; cited from earlier work
# [1] = tested on: Bradyrhizobium oligotrophicum ECU1212 resting cells; experiment: Asymmetric oxidation of thioethers by whole resting cells; assay type: cell-based; settings: 37 g/L substrate, 1 g lyophilized cells in 100 ml, 28° C., 24 h
# Protocol: Optionally, resting cells harvested from the culture of Bradyrhizobium oligotrophicum ECU1212 are used to asymmetrically catalyze the oxidation of lansoprazole thioether to prepared (R)-lansoprazole under the conditions that the thioether substrate concentration is 0.1 g/L, the catalyst loading is 10 g/L, and the reaction is carried out at 30° C. under stirring at 180 rpm. The conversion rate of lansoprazole thioether can be up to 80%, and the optical purity can be up to 99% ee(R). it can be seen that the Bradyrhizobium oligotrophicum ECU1212 comprises functional enzyme(s) which serve to asymmetrically catalyze the oxidation and have a high catalytic conversion rate. Thus, it can solve the problem that the conventional bio-catalysts have low conversion rate in the asymmetric catalytic oxidation process. […]
# To 100 ml Tris-HCl buffer (100 mmol/L, pH 9.0) was added 1 g of Bradyrhizobium oligotrophicum ECU1212 lyophilized cells (lyophilized cells prepared in accordance with Example 2), and thioanisole and methanol were added to a final concentration of 37 g/L, 10% (v/v). […] Then, the residue was dissolved in 0.5 ml isopropanol, and the solution was analyzed in accordance with the method of Example 7 for the conversion of reaction and the ee value of product. […]
# [2] = Activity of recombinant BoTEMO by change of absorbance at 340 nm (NADPH); assay type: biochemical
# Protocol: The activity of BoTEMO and glucose dehydrogenase was determined by measuring the change of absorbance at 340 nm with a spectrophotometer.
# (§2) The activity of BoTEMO was determined as follows. To 1 ml of the reaction system (100 mmol/L Tris-HCl buffer, pH 9.0) was added 1 mmol/L thioanisole and 0.2 mmol/L NADPH. The mixture was kept at 30° C. for 2 min, and then an appropriate amount of crude enzyme solution prepared in accordance with Example 5 was added. The mixture was rapidly mixed to uniform, and measured for the change of absorbance at 340 nm. The specific activity of the crude enzyme solution was determined as 101 mU/ml.
# (§3) The enzyme activity was calculated in accordance with the equation of: Enzyme Activity (U)=EW×V×10^3/(6220×1).
# (§4) In the equation, EW represents the change of absorbance at 340 nm in 1 min; V represents the volume of the reaction mixture (in ml); 6220 represents the molar extinction coefficient of NADPH (in L/(mol·cm)); and 1 represents the optical path distance (in cm). Each unit of BoTEMO is defined as the enzyme amount required to catalyze the oxidation of 1 μmol NADPH per minute under the foregoing conditions. Each unit of glucose dehydrogenase is defined as the enzyme amount required to catalyze the reduction of 1 μmol NADP^+ per minute under the foregoing conditions.
# [3] = Enzyme activity of BoTEMO-M1 and BoTEMO-M2 powders (method of Example 6); assay type: biochemical; settings: lyophilized crude enzyme powders; for enzyme activity relative to BoTEMO: times that of BoTEMO
# Protocol: as §2, §3, §4
# Recombinant transformants were prepared from the foregoing two mutant genes of BoTEMO-M1 and BoTEMO-M2 in accordance with the method of Example 4. Resting cells and lyophilized crude enzyme powders were prepared in accordance with the method of Example 5. And further, the enzyme activities of BoTEMO-M1 and BoTEMO-M2 powders were measured in accordance with the method of measuring the enzyme activity of Example 6. The enzyme activities of BoTEMO-M1 and BoTEMO-M2 are 7.6 times that of BoTEMO (BoTEMO-M1) and 1.6 times (BoTEMO-M2), respectively. The activity against the lansoprazole thioether reaches 20 U/g (BoTEMO-M1) and 4.2 U/g (BoTEMO-M2).
molecule,measurement,setting,value
CSc1ccccc1 [compound 1],Specific Activity,purified BoTEMO enzyme,+++ (“+++”: >100 U/g)
COc1ccc2[nH]c(SCc3ncc(C)c(OC)c3C)nc2c1 [compound 2],Specific Activity,purified BoTEMO enzyme,++ (“++”: 10 ~ 100 U/g)
COc1ccnc(CSc2nc3cc(-n4cccc4)ccc3[nH]2)c1C [compound 3],Specific Activity,purified BoTEMO enzyme,++ (“++”: 10 ~ 100 U/g)
CSc1ccc(C)cc1 [compound 4],Specific Activity,purified BoTEMO enzyme,+ (“+”: <10 U/g)
COc1ccc2[nH]c(SC)nc2c1 [compound 5],Specific Activity,purified BoTEMO enzyme,+ (“+”: <10 U/g)
COCCCOc1ccnc(CSc2nc3ccccc3[nH]2)c1C [compound 6],Specific Activity,purified BoTEMO enzyme,+ (“+”: <10 U/g)
COc1ccnc(CSc2nc3cc(OC(F)F)ccc3[nH]2)c1OC [compound 7],Specific Activity,purified BoTEMO enzyme,+ (“+”: <10 U/g)
Cc1c(OCC(F)(F)F)ccnc1CSc1nc2ccccc2[nH]1 [compound 8],Specific Activity,purified BoTEMO enzyme,+ (“+”: <10 U/g)
COc1ccc2[nH]c(SCc3ncc(C)c(OC)c3C)nc2c1 [omeprazole thioether],conversion of reaction,"Recombinant BoTEMO; 1 g crude enzyme powders in 100 ml, 1 g/L substrate, 3 h",above 99%
same,conversion of reaction,"Recombinant BoTEMO; crude enzyme solution, 0.2 mmol/L substrate, 1 h",above 99%
same,conversion,Lysinibacillus,77%
CSc1ccccc1 [thioanisole],conversion of reaction,"Recombinant BoTEMO; crude enzyme solution, 2 mmol/L substrate, 1 h",above 99%
same,conversion of reaction,[1],above 99%
B1,specific activity of the crude enzyme solution,"[2]; 1 mmol/L thioanisole, 0.2 mmol/L NADPH, pH 9.0, 30° C.",101 mU/ml
same,activity of lyophilized crude enzyme solution powders on thioanisole,[2]; lyophilized crude enzyme powders,0.2 U/mg
B2,activity against the lansoprazole thioether,[3],4.2 U/g
same,enzyme activity relative to BoTEMO,[3],1.6 times
B3,activity against the lansoprazole thioether,[3],20 U/g
same,enzyme activity relative to BoTEMO,[3],7.6 times
